“And” between values parts separate entries of the source, which are not always exact repeats. Equal values may be shown once. Read-outs that look alike come from different tables or passages of the source.

For orientation: EC50 means the concentration at which the effect is half-maximal. What is called AUC is the area under the concentration-time curve, a measure of exposure. A low value points to low exposure. In general, melting point refers to the temperature, or range, at which the solid turns liquid.

Series [1] concerns SMN2-linked luciferase-reporter gene construct. As to the kind of experiment: SMN splice reporter assay (SMN2-linked luciferase reporter, Example 10). It counts as cell-based. The settings on record: for maximal fold induction: read-out: SMN Splice Reporter Assay (Example 10) Avg MaxFold Increase. The procedure, abridged: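 Values are fold-increase in luciferase signal relative to baseline cells without compound. The cervical carcinoma line used holds a fusion of alternatively spliced SMN2 sequence and luciferase. Readable frame, and thus signal, arises only with exon 7-including splicing.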
On the technique in general: A reporter such as luciferase makes a cellular process visible.

The test system of series [2] is luciferase reporter containing the UAG stop codon. As to the kind of experiment: Translational read-through luciferase reporter assay, UAG stop codon. It counts as cell-based. The settings on record: read-out: MaxFold Increase. The text has this:
This assay is described in detail in WO 01/44516 A2. This is a cell-based luciferase reporter assay designed to detect translational read-through via insertion of a translational stop codon within the luciferase coding sequence. In the presence of compounds that promote read-through of translational stop codons, active luciferase is produced and detected via chemiluminescence. We have shown that indoprofen analogs are active in two versions of this assay—one containing a UGA stop codon and one containing a UAG stop codon. The data in the table is from the luciferase reporter containing the UAG stop codon. This is the first stop codon downstream of the improper splice junction between exons 6 and 8 in the human SMN2 transcript.

Series [3] relates to human GLT-1/EAAT-2 promoter. As to the kind of experiment: GLT-1/EAAT-2 promoter luciferase reporter assay in COS-7 cells. Type of series: cell-based. To be noted: COS-7 pE2P-GL3 (clone 4), 48 h; for maximal fold induction: Homo sapiens, normalized to DMSO control, read-out: Max Fold-Induction. Here is the method:
The astroglial glutamate transporter, GLT-1/EAAT-2, is responsible for the majority of glutamate transport in the brain and spinal cord. […] Results from each plate were normalized to the DMSO treated control wells and expressed as fold-induction. EC50 values were calculated using GraphPad Prism software.

Series [4] can be described thus: Plasma and brain pharmacokinetics in mice. It counts as in vivo, FVB or CD-1 mice. To be noted: 5 mg/kg, single dose; for Kp / half-life / AUC: mouse; for Kp: brain and plasma, read-out: Brain/Plasma Ratio. As to the method:
Compounds were formulated in solution using the method of cosolvency as described by Lee et al., Int. J. Pharmaceutics, 253: 111-119 (2003). FVB or CD-1 mice, approximately 5 weeks old, were given a single dose of compound at the indicated concentration. Compounds were administered orally, with the exception of ALB-116638 and ALB-117573, which were administered IV. Three to five mice were euthanized at various times between 15 minutes and 24 hours after dosing and brain and plasma were harvested. Tissues were homogenized in acetonitrile and analyzed on an API 4000 LC/MS/MS system coupled with an Agilent 1100 series liquid chromatograph. All pharmacokinetic analyses were conducted using WinNonlin (Version 4.01; Pharsight, Palo Alto, Calif.) with the exception of brain/plasma ratios, which were calculated using Microsoft Excel 2000. AUC values are the area under the concentration-time curve from time zero to the last measured time point. The half life values are extrapolated from 3-4 time points taken at less than 4 hours after dosing.

Series [5] concerns SMN-containing gems in fibroblast cells from a type 1 SMA patient (3813 cells). As to the kind of experiment: Gem count by immunohistochemistry in type 1 SMA patient fibroblasts (3813 cells). Type of series: cell-based, human. To be noted: for Number of gems per 100 nuclei, Treated Cells: 48 hours. The text has this: SMN protein can be found in punctate nuclear particles called “gems” (Liu and Dreyfuss, EMBO J. 15(14): 3555-3565 (1996)). In fibroblast cells derived from SMA patients, the number of gems corresponds to disease severity as follows: severe type 1 patients have approximately 5 gems per 100 nuclei; mild type 3 patients have 20-50 gems per 100 nuclei; normal individuals have approximately 100-150 gems per 100 nuclei (Coovert et al., Hum Mol Genet 6(8): 1205-1214 (1997), Young et al., Exp Cell Res 265(2): 252-261 (2001)).
Following these methods, fibroblast cells from a type 1 SMA patient (3813 cells, Coriell Cell Repositories) were treated for 48 hours with the compounds indicated in Table 2 (reference number—structure correlation is provided in Table 1). The cells were then fixed and incubated with a monoclonal antibody against SMN (4B7, Wolstencroft et al., Hum Mol Genet 14:1199-1210 (2005)). A FITC-conjugated anti-mouse secondary antibody was used to visualize the labeled gems.

The test system of series [6] is SMN. As to the kind of experiment: Western blot of SMN in SMA type I fibroblasts (3813 cells). It counts as cell-based, human. The settings on record: 48 hours, DMSO = 1. Here is the method: Westerns blots were performed using the methods of Mattis et al., Hum Genet 120:589-601(2006)). SMA type I fibroblasts (3813 cells; Coriell Cell Repositories) were treated with compounds for 48 hours. Monoclonal anti-SMN antibody 4B7 (Wolstencroft et al., Hum Mol Genet 14:1199-1210 (2005)) was used to identify SMN. Actin was used as an internal normalization standard and detected with an anti-actin polyclonal rabbit antibody (Sigma-Aldrich). Tobramycin was used for the positive control compound treatment. DMSO is the untreated negative control. Values are presented as the ratio of the signals obtained for SMN and Actin.

Series [7] has as its system SMN protein. To be noted: cited from earlier work.
In series [8] the test system is SMA model mouse fetuses. To be noted: administered in utero; cited from earlier work.
[9] abbreviates: SMN2-linked luciferase reporter, average.
[10] abbreviates: maximum fold increase of reporter signal, average.
[11] abbreviates: brain, oral, read-out: Brain T½ (converted).
[12] abbreviates: plasma, oral, read-out: Plasma T½ (converted).
Where [13] appears, read: SMN2-linked luciferase reporter, average maximum fold increase.

For `CC(C(N)=O)c1ccc(N2Cc3ccccc3C2=O)cc1` (stereo not shown) [ALB-112171], the values for the EC50 in series [1] (setting [9]) and in series [3] were 6720 nM and 460 nM, respectively. Also, the maximal fold induction in [1] (setting [10]) was 1.34; in series [2] it was 2.2; in series [3], 1.9.

`COc1ccc2c(c1)C(=O)N(c1ccc(C(C)C(=O)OC(C)(C)C)cc1)C2` (stereo not shown) [ALB-112354]: the EC50 in series [1] (setting [9]) is 801 nM; in series [3] it was 221 nM. The maximal fold induction was 1.46 in series [1] (setting [10]), 2 in series [2] and 1.93 in series [3].

In series [1] (setting [9]), `COc1ccc2c(c1)C(=O)N(c1ccc(C(C)C(=O)O)cc1)C2` (stereo not shown) [ALB-112355] displayed an EC50 of 83 nM. Moreover, the maximal fold induction was 1.85 in [1] (setting [10]) and 2.7 in series [2]. In addition, the “Brain AUC” value in series [4] (oral) was found to be 570.0 ng·h/g. The Kp in series [4] (oral) stood at 0.03. Moreover, the half-life in [4] (setting [11]) is 2.6 h; in series [4] (setting [12]), 7.6 h. Moreover, in [4] (plasma, oral), the AUC came to 21100 ng·h/mL. In addition, in series [5] (0.45 μM), the “Number of gems per 100 nuclei, Treated Cells” value worked out at 5.3 gems per 100 nuclei.

`CCCc1ccc2c(c1)C(=O)N(c1ccc(C(C)C(=O)O)cc1)C2` (stereo not shown) [ALB-113310] displayed a half-maximal effective concentration (EC50) in [1] (setting [9]) of 49 nM. Besides, the maximal fold induction in series [1] (setting [10]) was 2.1; in [2], 3.7. Moreover, the “SMN:Actin Ratio” value in series [6] (0.1 uM) worked out at 4.8; in [6] (1 uM), 6.2. The “Number of gems per 100 nuclei, Treated Cells” value in series [5] (3 μM) turned out to be 53.5 gems per 100 nuclei.

As for `CC(CN(C)C)c1ccc(N2Cc3ccccc3C2=O)cc1` (stereo not shown) [ALB-113968], the EC50 in series [1] (setting [9]) came out at 6030 nM; in [3], 1270 nM. Also, the maximal fold induction in [1] (setting [10]) came out at 1.37; in [3], 1.78.

In turn, `COc1ccc2c(c1)C(=O)N(c1ccc(C(C)C)cc1)C2` [ALB-115069] yielded a concentration giving a half-maximal response (EC50) in series [1] (setting [9]) of 81 nM. For the same compound, the maximal fold induction in series [1] (setting [10]) came to 1.5. For the same compound, the “SMN:Actin Ratio” value was determined as 4.3 in series [6] (0.1 uM) and 5.7 in series [6] (1 uM). Moreover, in [5] (1 μM), the “Number of gems per 100 nuclei, Treated Cells” value came out at 45.25 gems per 100 nuclei.

For `CC(C)c1ccc(N2Cc3cc4c(cc3C2=O)OCCO4)cc1` [ALB-115498], the midpoint of the response in [1] (setting [9]), the EC50, lay at 203 nM. For the same compound, the maximal fold induction is 1.83 in series [1] (setting [10]) and 0.86 in series [3]. Further, in series [4] (oral), the “Brain AUC” value came out at 163.8 ng·h/g. In addition, the Kp in [4] (oral) was determined as 3.43. In addition, the values for the half-life in [4] (setting [11]) and in series [4] (setting [12]) were 0.5 h and 0.6 h, respectively. The compound further displayed an AUC in series [4] (plasma, oral) of 47.8 ng·h/mL. For the same compound, the “Number of gems per 100 nuclei, Treated Cells” value in series [5] (1 μM) stood at 14.3 gems per 100 nuclei.

Compound `CC(C)c1ccc(N2Cc3ccc(N(C)C)cc3C2=O)cc1` [ALB-115806] had an EC50 in series [1] (setting [9]) of 41 nM. The maximal fold induction in series [1] (setting [10]) worked out at 1.47; in series [2], 2; in series [3], 0.87. For the same compound, the “Number of gems per 100 nuclei, Treated Cells” value in [5] (0.4 μM) was 8 gems per 100 nuclei.

In the case of `CC(C)c1ccc(N2Cc3ccc(OC(F)F)cc3C2=O)cc1` [ALB-116244], in series [1] (setting [9]), a half-maximal effect (EC50) was put at 599 nM. The maximal fold induction was determined as 1.57 in series [1] (setting [13]) and 2.8 in [2]. For the same compound, the “Number of gems per 100 nuclei, Treated Cells” value in series [5] (0.1 μM) is given as 44 gems per 100 nuclei.

In turn, `CN(C)Cc1ccc(N2Cc3ccccc3C2=O)cc1` [ALB-116255] came in with an EC50 in series [1] (setting [9]) of 50 nM. Moreover, the maximal fold induction was 1.09 in [1] (setting [10]) and 1.2 in [3].

Consider `COCC(C)c1ccc(N2Cc3cc4c(cc3C2=O)OCCO4)cc1` (stereo not shown) [ALB-116361], for which the EC50 is 3560 nM in series [1] (setting [9]) and 6.79 nM in [3]. Further, the maximal fold induction worked out at 1.9 in [1] (setting [10]) and 1.54 in series [3].

For the compound `CC(C)c1ccc(N2Cc3ccc(NS(C)(=O)=O)cc3C2=O)cc1` [ALB-116486], a half-maximal response in [1] (setting [9]) (EC50) required 757 nM. The maximal fold induction in series [1] (setting [13]) stood at 1.49; in [2], 2.4; in [3] it was 1.17.

As for `CC(C)c1ccc(N2Cc3ccc(NC(N)=O)cc3C2=O)cc1` [ALB-117573], a half-maximal effect in series [1] (setting [9]) (EC50) was put at 345 nM. The maximal fold induction in series [1] (setting [13]) was 1.67; in series [2], 4.4. In addition, the “Brain AUC” value in series [4] (IV) amounted to 64.5 ng·h/g. Besides, in series [4] (brain, IV, read-out: Brain T½ (converted)), the half-life was 7.4 h.

For `CCCc1ccc2c(c1)C(=O)N(c1ccc(C(C)C(=O)O)cc1)C2` (stereo not shown) [Example 2, 2-(4-(1-oxo-6-propylisoindolin-2-yl)phenyl)propanoic acid], the melting point was 175 to 177 °C.

In the case of `COCC(C)c1ccc(N2Cc3ccc(OC)cc3C2=O)cc1` (stereo not shown) [Example 4, 6-methoxy-2-(4-(1-methoxypropan-2-yl)phenyl)isoindolin-1-one], the melting point was 116 to 118 °C.

Consider `CC(C)c1ccc(N2Cc3ccc(Cl)cc3C2=O)cc1` [Example 5, 6-chloro-2-(4-isopropylphenyl)isoindolin-1-one], for which the melting point lay within 206 to 209 °C.

For the compound `CC(C)c1ccc(N2Cc3ccc([N+](=O)[O-])cc3C2=O)cc1` [Example 6, 2-(4-isopropylphenyl)-6-nitroisoindolin-1-one], the melting point lay within 225 to 227 °C.

On to `CC(C(=O)O)c1ccc(N2Cc3ccccc3C2=O)cc1` (stereo not shown) [Indoprofen], for which, in series [1] (cervical carcinoma cell lines with SMN2-luciferase reporter), the “luciferase activity in SMN splice reporter assay” value is “increases luciferase activity”. For the same compound, in series [2], the maximal fold induction is 2.3. Moreover, the “production of SMN from the endogenous SMN2 gene” value in series [7] (SMA patient fibroblasts) was “increase in production of SMN”. Moreover, in [7] (cultured cells, Lunn et al. 2004), the “level of expression of SMN protein” value was “increases the level of expression of SMN protein”. Also, the “survival of SMA model mouse fetuses” value in series [8] is “increase survival”.

On to `CCCC(CCC)C(=O)O` [Positive Control, valproic acid, reference compound], for which the “Number of gems per 100 nuclei, Positive Control” value in series [5] (1000 μM valproic acid, same patient fibroblasts) was 31 gems per 100 nuclei and 38.7 gems per 100 nuclei.

As to `NC[C@H]1O[C@H](O[C@H]2[C@H](O)[C@@H](O[C@H]3O[C@H](CO)[C@@H](O)[C@H](N)[C@H]3O)[C@H](N)C[C@@H]2N)[C@H](N)C[C@@H]1O` [Tobramycin, reference compound], the “SMN:Actin Ratio” value in series [6] (320 uM, positive control) is reported as 1.5.

The values are drawn from patent US8110681B2, “Compounds for the treatment of spinal muscular atrophy and other uses” (The United States of America as represented by the …, priority 2006, dated 2012).
